# Numbered stars: 1 amine (or outer) side, 2 acyl side, 3 side chain; on linkers, the order of the positions; unused ones are H or OH. Square brackets hold non-standard residues; d marks the D form. Peptide text beside a SMILES is read from it. * marks the point of attachment. X2 = CC1(C)C(=O)N(c2ccc(C#N)c(C(F)(F)F)c2)C(=S)N1c1ccc(C(=O)*)c(F)c1; X1 = O=C1CCC(N2C(=O)c3cccc(N(CC(=O)[*:2])[*:1])c3C2=O)C(=O)N1; EuK = O=C(O)CC[C@H](NC(=O)N[C@@H](CCCCN*)C(=O)O)C(=O)O; 2Nal = N[C@@H](Cc1ccc2ccccc2c1)C(=O)O
# Columns and labels:
# [1] = system: 22Rv1 xenograft tumor; test: Antitumor efficacy in 22Rv1 xenograft mice; type: in vivo, BALB/c nude mice; settings: dose study, intravenous every 48 h, five cycles, 20 days
# [2] = system: AR; test: Western blot AR degradation in 22Rv1 cells; type: cell-based
# Protocol: All uncropped blots are presented in Supplementary Fig. 26. j, k Representative 22Rv1 cell CLSM images of the degradation of AR after incubation with FITC-labeled Psa-AR for 12 h and quantitative analysis, n = 3 per group. Scale bar: 10 μm. l, m Representative 22Rv1 cell CLSM images of the degradation of HSP90 after incubation with FITC-labeled Psa-AR for 12 h and quantitative analysis, n = 3 per group. Scale bar: 10 μm. n AR-V7 expression in 22Rv1 cells after treatment with PBS, P-AR (20 μM), Psa-AR (20 μM) or Psa-AR (20 μM) combined with MG132 (2 μM) for 48 h, as determined by western blotting. β-Actin was used as an internal reference. o Results of apoptosis in 22Rv1 cells treated with PBS, P-AR (20 μM), or Psa-AR (20 μM) for 48 h, as detected by flow cytometry.
# The pretreated cells were resuspended in lysis buffer containing 50 mM Tris-HCl (pH 8.0), 150 mM NaCl, 1% (v/v) Triton X-100, and protease inhibitors. The protein concentration was determined via a BCA kit (Applygen). Each sample ([…]) was subjected to SDS‒PAGE and then transferred to a PVDF membrane. The blots were blocked in 5% (wt/v) blocking buffer. After washing three times with TBST buffer (10 mM TBS solution containing 0.1% (v/v) Tween-20), the blots were incubated with primary antibodies at 4 °C on a shaker for 16 h. After washing with TBST buffer three times, the blot was incubated with secondary antibodies at room temperature on a shaker for 2 h. After being washed three times with TBST buffer, the blots were subsequently scanned on a Typhoon Trio Variable Mode Imager.
# [3] = system: RWPE-1 (PSMA^low) and 22Rv1 (PSMA^high) cells; test: Uptake in RWPE-1 versus 22Rv1 cells (flow cytometry, IF); type: cell-based
# Protocol: (§1) Fig. 2 a Representative 22Rv1 cell CLSM images of FITC-labeled Psa-AR (40 μM) assembly (green channel) interacting with PSMA (red channel) and its colocalization analysis (1–1’). Scale bar: 10 μm. b Representative SEM images of 22Rv1 cells after treatment with Psa-AR (40 μM) for 4 h. Scale bar: 1 μm. Scale bar: 200 nm (zoom in). c Representative 22Rv1 cell CLSM images of FITC-labeled P-AR (40 μM) (green channel) interacting with PSMA (red channel). Scale bar: 10 μm. d Representative SEM images of 22Rv1 cells after treatment with P-AR (40 μM) for 4 h. Scale bar: 1 μm. Scale bar: 200 nm (zoom in). e The uptake of either Psa-AR or P-AR by 22Rv1 (PSMA^high) and RWPE-1 (PSMA^low) cells was examined by flow cytometry, followed by comprehensive quantitative analysis (f), n = 3 per group. g Representative 22Rv1 cell CLSM images of FITC-labeled Psa-AR assembly (green channel) with lysosomes (red channel) and colocalization analysis. Scale bar: 10 μm. h Representative CLSM images of 22Rv1 cells after incubation with FITC-labeled Psa-AR (green channel) for 12 h. […]
# (§2) A total of 1 × 10^5 22Rv1 cells per well were seeded in 6-well plates in DMEM containing 10% fetal bovine serum and 1% penicillin‒streptomycin. […] Then, the cells were collected to evaluate fluorescence expression via flow cytometry. […] The cells were then collected and analyzed for fluorescence expression via flow cytometry.
# [4] = system: 22Rv1 cells; type: cell-based; settings: n = 6, read-out: IC50, cell viability
# [5] = system: 22Rv1 (PSMA^high) cells; test: Flow cytometry uptake of FITC-labeled conjugates in 22Rv1 cells; type: cell-based; settings: 40 µM, 24 h, n = 3
# Protocol: as §1, §2
# [6] = ThT assay of self-assembly (critical assembly concentration, assembly kinetics); type: physicochemical
# [7] = TEM of assemblies after PSMA addition; type: physicochemical; settings: 40 μM, within 0.5 h of PSMA engagement
# [8] = western blot, 22Rv1, 20 μM, 48 h
compound,measurement,setting,value
CC1(C)C(=O)N(c2ccc(C#N)c(C(F)(F)F)c2)C(=S)N1c1ccc(C(=O)NCCCC[C@H](NC(=O)CNc2cccc3c2C(=O)N(C2CCC(=O)NC2=O)C3=O)C(=O)N[C@@H](CS)C(=O)N[C@@H](CCC(N)=O)C(=O)N[C@@H](Cc2ccc(O)cc2)C(=O)N[C@@H](CC(N)=O)C(=O)N[C@@H](CCC(N)=O)C(=O)N[C@@H](Cc2ccc(O)cc2)C(=O)N[C@@H](Cc2ccc(O)cc2)C(=O)N[C@@H](Cc2ccc3ccccc3c2)C(=O)NCCCC[C@H](NC(=O)N[C@@H](CCC(=O)O)C(=O)O)C(=O)O)c(F)c1 (stereo partly drawn) [Psa-AR] (H-[X1]K(X2)CQYNQYY[2Nal]-EuK),mean tumor volume at 10 mg/kg,[1],220 mm^3
same,AR protein knockdown maintained within 96-h observation period,"[2]; 22Rv1, 20 μM, 12–96 h",over 99%
same,DC50,"[2]; 22Rv1 cell line, 1 to 100 μM, read-out: DC50 for AR protein degradation",9.45 µM
same,AR degradation compared with PBS controls,[2]; [8],79%
same,enhancement of AR degradation over P-AR,[2]; [8],45%
same,"selectivity ratio between PSMA^low RWPE-1 and PSMA^high 22Rv1 cells, relative to P-AR","[3]; FITC-labeled, 40 µM, 24 h, flow cytometry, n = 3",13 fold
same,cellular uptake in RWPE-1 cells,"[3]; IF, RWPE-1 (PSMA^low) cells",low cellular uptake
same,IC50,[4],10.9 ± 1.1 µM
same,uptake efficiency relative to nonassembling P-AR,[5],5 fold
same,FTIR amide I peak with PSMA,,1630 cm⁻¹
same,lowering of CAC by PSMA binding,"[6]; ThT assay, 95.5–10.9 μM",8.76 fold
same,"time to full assembly equilibrium, PSMA-bound","[6]; ThT kinetic curve, 40 μM, PSMA added",12 h
same,"t1/2 of self-assembly (50% assembly), PSMA-bound","[6]; ThT kinetic curve, 40 μM, PSMA added, n = 3",1.4 h
same,"time to full assembly equilibrium, unbound","[6]; ThT kinetic curve, 40 μM, without PSMA",60 h
same,"t1/2 of self-assembly (50% assembly), unbound","[6]; ThT kinetic curve, 40 μM, without PSMA, n = 3",11.4 h
same,critical assembly concentration (CAC) with PSMA added,"[6]; standard ThT assay, PSMA added, n = 3, P-AR tested up to 50 μM",10.9 µM
same,critical assembly concentration (CAC),"[6]; standard ThT assay, without PSMA, n = 3",95.5 µM
same,diameter of spherical nanoparticles,[7],200–250 nm
